Measurements: patent publication EP3932409A1 (priority 2020, dated 2022)

Columns and labels:
[1] = test system: 229E-GFP; assay: microbe, parasite or virus in culture; format: cell-based, human coronavirus; details: for EC90 / EC50: 72 h; for EC50: read-out: ECso; for infection by 229E-GFP: result in words, micromolar concentrations
[2] = test system: SARS-CoV-2; assay: SARS-CoV-2 cell monolayer protection assay; format: cell-based, SARS-CoV-2 strain NL/2020; details: Severe acute respiratory syndrome coronavirus 2, Vero C1008, 72 h; for EC100: read-out: concentration protecting completely / around 100% of the cell monolayer
[3] = test system: SARS-CoV-2; format: cell-based, SARS-CoV-2 strain NL/2020
[4] = test system: SARS-CoV-2; assay: Intracellular viral RNA quantitation (RT-qPCR), with time of addition; format: cell-based, SARS-CoV-2 strain NL/2020
[5] = test system: retroviral vectors pseudotyped with SARS-CoV-2 Spike protein (SARS2pp); assay: microbe, parasite or virus in culture; format: cell-based; details: Severe acute respiratory syndrome coronavirus 2, Vero C1008, 48 h
[6] = test system: Vero-E6 cells; details: uninfected Vero-E6 cells, 200 to 3.125 µM, crystal violet
[7] = in vitro; details: human, huh7-lunet#3 cells

| SMILES | EC90 [1] | EC50 [1] | infection by 229E-GFP [1] | EC50 [2] | EC100 [2] | progeny virus production (TCID50) [3] | viral RNA accumulation [4] | EC50 [5] | cytotoxicity in Vero-E6 cells [6] | CC50 at 72 h [7] |
| --- | --- | --- | --- | --- | --- | --- | --- | --- | --- | --- |
| CC[C@H]1OC(=O)[C@H](C)[C@@H](O[C@H]2C[C@@](C)(OC)[C@@H](O)[C@H](C)O2)[C@H](C)[C@@H](O[C@@H]2O[C@H](C)C[C@H](N(C)C)[C@H]2O)[C@](C)(O)C[C@@H](C)CN(C)[C@H](C)[C@@H](O)[C@]1(C)O [Azithromycin] | 18.8 ± 2.5 µM | 6.1 ± 2.4 µM | blocked viral infection | 75 µM | 200 µM | undetectable levels | significantly reduced viral RNA accumulation in a dose dependent manner | ~30 µM | not toxic at any of the tested concentrations | > 50 µM |
| CC[C@H]1OC(=O)[C@H](C)[C@@H](O[C@H]2C[C@@](C)(OC)[C@@H](O)[C@H](C)O2)[C@H](C)[C@@H](O[C@@H]2O[C@H](C)C[C@H](N(C)C)[C@H]2O)[C@](C)(O)C[C@@H](C)C(=O)[C@H](C)[C@@H](O)[C@]1(C)O [Erithromycin, Erythromycin] | > 50 µM | > 50 µM | not significantly affected | – | – | – | – | – | – | > 50 µM |
| CO/N=C(\C(=O)N[C@@H]1C(=O)N2C(C(=O)O)=C(COC(N)=O)CS[C@H]12)c1ccco1 [Cefuroxime] | > 50 µM | > 50 µM | not significantly affected | – | – | – | – | – | – | > 50 µM |
| CC[C@H]1OC(=O)[C@H](C)[C@@H](O[C@H]2C[C@@](C)(OC)[C@@H](O)[C@H](C)O2)[C@H](C)[C@@H](O[C@@H]2O[C@H](C)C[C@H](N(C)C)[C@H]2O)[C@](C)(O)C[C@@H](C)/C(=N\OC)[C@H](C)[C@@H](O)[C@]1(C)O [Lexithromycin] | 16.3 ± 6 µM | 3 ± 1.4 µM | blocked viral infection | 25 µM | 50 µM | undetectable levels | significantly reduced viral RNA accumulation in a dose dependent manner | ~18 µM | the most toxic compound | > 50 µM |
| CC[C@H]1OC(=O)[C@H](C)[C@@H](O[C@H]2C[C@@](C)(OC)[C@@H](O)[C@H](C)O2)[C@H](C)[C@@H](O[C@@H]2O[C@H](C)C[C@H](N(C)C)[C@H]2O)[C@](C)(OC)C[C@@H](C)C(=O)[C@H](C)[C@@H](O)[C@]1(C)O [Clarithromycin] | 46.3 ± 4.8 µM | 17.3 ± 9.2 µM | blocked viral infection | 60 µM | 100 µM | undetectable levels | significantly reduced viral RNA accumulation in a dose dependent manner | ~30 µM | – | > 50 µM |
